Experimental data: patent US20240123013A1, “SUPPLEMENT FOR ARTHRITIS AND PSORIASIS” (priority 2021, published 2024)

Test: Comparison of arthritis gel compositions formulated with different crystalline CBDs (Example 12)
Details: gels differ only in the crystalline CBD used
Experimental: Two hydroalcoholic arthritis gel compositions are prepared according to Example 2, the only difference being that the crystalline CBD used in the formulation is either of type A (needle-like crystals; FIG. 1) or type B (bunch/cluster-like; FIG. 2).

C=C(C)[C@@H]1CCC(C)=C[C@H]1c1c(O)cc(CCCCC)cc1O [type A CBD, cannabidiol]
Activity of CBD in hydroalcoholic arthritis gel, crystal type A versus type B: significantly more active than type B CBD
Activity of CBD in hydroalcoholic arthritis gel, crystal type A versus type B (listed as crystal structure A): significantly more potent
